Tested on: Stress protein genes
Test: DNA chip mRNA expression in yeast, stress protein genes (Table 6)
Format: cell-based, Saccharomyces cerevisiae S288C
Outline: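 Whole-genome yeast DNA chip hybridization (65° C., >12 h) of Cy-labeled cDNA from S288C cells exposed 2 h at 25° C. to a sub-lethal toxicant dose in YPD; value is intensity relative to chemical-free control.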

Structure (SMILES): N#Cc1c(Cl)c(Cl)c(Cl)c(C#N)c1Cl [(9), 2,4,5,6-tetrachloro-1,3-benzenedicarbonitrile]
- The level of expressed mRNA in the presence of chemical substance/The level of expressed mRNA in the absence of chemical substance (yeast gene YAL005C): 3.9
- The level of expressed mRNA in the presence of chemical substance/The level of expressed mRNA in the absence of chemical substance (yeast gene YAL015C): 4.0
- The level of expressed mRNA in the presence of chemical substance/The level of expressed mRNA in the absence of chemical substance (yeast gene YBL075C): 60.3
- The level of expressed mRNA in the presence of chemical substance/The level of expressed mRNA in the absence of chemical substance (yeast gene YBL093C): 0.7
- The level of expressed mRNA in the presence of chemical substance/The level of expressed mRNA in the absence of chemical substance (yeast gene YBR044C): 0.8
- The level of expressed mRNA in the presence of chemical substance/The level of expressed mRNA in the absence of chemical substance (yeast gene YBR054W): 0.4
- The level of expressed mRNA in the presence of chemical substance/The level of expressed mRNA in the absence of chemical substance (yeast gene YBR067C): 1.7
- The level of expressed mRNA in the presence of chemical substance/The level of expressed mRNA in the absence of chemical substance (yeast gene YBR072W): 29.4
- The level of expressed mRNA in the presence of chemical substance/The level of expressed mRNA in the absence of chemical substance (yeast gene YBR126C): 1.7
- The level of expressed mRNA in the presence of chemical substance/The level of expressed mRNA in the absence of chemical substance (yeast gene YBR169C): 7.0
- The level of expressed mRNA in the presence of chemical substance/The level of expressed mRNA in the absence of chemical substance (yeast gene YCL035C): 1.9
- The level of expressed mRNA in the presence of chemical substance/The level of expressed mRNA in the absence of chemical substance (yeast gene YCR021C): 2.2
- The level of expressed mRNA in the presence of chemical substance/The level of expressed mRNA in the absence of chemical substance (yeast gene YCR060W): 0.7
- The level of expressed mRNA in the presence of chemical substance/The level of expressed mRNA in the absence of chemical substance (yeast gene YCR083W): 1.8
- The level of expressed mRNA in the presence of chemical substance/The level of expressed mRNA in the absence of chemical substance (yeast gene YDL022W): 1.2
- The level of expressed mRNA in the presence of chemical substance/The level of expressed mRNA in the absence of chemical substance (yeast gene YDL025C): 3.6
- The level of expressed mRNA in the presence of chemical substance/The level of expressed mRNA in the absence of chemical substance (yeast gene YDR033W): 0.3
- The level of expressed mRNA in the presence of chemical substance/The level of expressed mRNA in the absence of chemical substance (yeast gene YDR077W): 0.7
- The level of expressed mRNA in the presence of chemical substance/The level of expressed mRNA in the absence of chemical substance (yeast gene YDR098C): 3.7
- The level of expressed mRNA in the presence of chemical substance/The level of expressed mRNA in the absence of chemical substance (yeast gene YDR155C): 1.3
- The level of expressed mRNA in the presence of chemical substance/The level of expressed mRNA in the absence of chemical substance (yeast gene YDR258C): 4.9
- The level of expressed mRNA in the presence of chemical substance/The level of expressed mRNA in the absence of chemical substance (yeast gene YDR293C): 1.2
- The level of expressed mRNA in the presence of chemical substance/The level of expressed mRNA in the absence of chemical substance (yeast gene YDR436W): 3.5
- The level of expressed mRNA in the presence of chemical substance/The level of expressed mRNA in the absence of chemical substance (yeast gene YDR513W): 4.6
- The level of expressed mRNA in the presence of chemical substance/The level of expressed mRNA in the absence of chemical substance (yeast gene YDR519W): 0.5
- The level of expressed mRNA in the presence of chemical substance/The level of expressed mRNA in the absence of chemical substance (yeast gene YEL030W): 2.3
- The level of expressed mRNA in the presence of chemical substance/The level of expressed mRNA in the absence of chemical substance (yeast gene YEL039C): 1.2
- The level of expressed mRNA in the presence of chemical substance/The level of expressed mRNA in the absence of chemical substance (yeast gene YER042W): 6.8
- The level of expressed mRNA in the presence of chemical substance/The level of expressed mRNA in the absence of chemical substance (yeast gene YER057C): 0.6
- The level of expressed mRNA in the presence of chemical substance/The level of expressed mRNA in the absence of chemical substance (yeast gene YER103W): 20.3
- The level of expressed mRNA in the presence of chemical substance/The level of expressed mRNA in the absence of chemical substance (yeast gene YER125W): 0.6
- The level of expressed mRNA in the presence of chemical substance/The level of expressed mRNA in the absence of chemical substance (yeast gene YFL014W): 13.1
- The level of expressed mRNA in the presence of chemical substance/The level of expressed mRNA in the absence of chemical substance (yeast gene YFL016C): 6.4
- The level of expressed mRNA in the presence of chemical substance/The level of expressed mRNA in the absence of chemical substance (yeast gene YFL020C): 1.3
- The level of expressed mRNA in the presence of chemical substance/The level of expressed mRNA in the absence of chemical substance (yeast gene YFR052W): 3.7
- The level of expressed mRNA in the presence of chemical substance/The level of expressed mRNA in the absence of chemical substance (yeast gene YGL073W): 1.9
- The level of expressed mRNA in the presence of chemical substance/The level of expressed mRNA in the absence of chemical substance (yeast gene YGL115W): 1.2
- The level of expressed mRNA in the presence of chemical substance/The level of expressed mRNA in the absence of chemical substance (yeast gene YGL181W): 2.7
- The level of expressed mRNA in the presence of chemical substance/The level of expressed mRNA in the absence of chemical substance (yeast gene YGR088W): 1.5
- The level of expressed mRNA in the presence of chemical substance/The level of expressed mRNA in the absence of chemical substance (yeast gene YHL028W): 0.2
- The level of expressed mRNA in the presence of chemical substance/The level of expressed mRNA in the absence of chemical substance (yeast gene YHL046C): 1.0
- The level of expressed mRNA in the presence of chemical substance/The level of expressed mRNA in the absence of chemical substance (yeast gene YHR030C): 0.6
- The level of expressed mRNA in the presence of chemical substance/The level of expressed mRNA in the absence of chemical substance (yeast gene YHR057C): 2.6
- The level of expressed mRNA in the presence of chemical substance/The level of expressed mRNA in the absence of chemical substance (yeast gene YHR104W): 4.8
- The level of expressed mRNA in the presence of chemical substance/The level of expressed mRNA in the absence of chemical substance (yeast gene YIL011W): 0.0
- The level of expressed mRNA in the presence of chemical substance/The level of expressed mRNA in the absence of chemical substance (yeast gene YIL033C): 2.4
- The level of expressed mRNA in the presence of chemical substance/The level of expressed mRNA in the absence of chemical substance (yeast gene YIR037W): 6.2
- The level of expressed mRNA in the presence of chemical substance/The level of expressed mRNA in the absence of chemical substance (yeast gene YIR038C): 4.6
- The level of expressed mRNA in the presence of chemical substance/The level of expressed mRNA in the absence of chemical substance (yeast gene YJL128C): 2.0
- The level of expressed mRNA in the presence of chemical substance/The level of expressed mRNA in the absence of chemical substance (yeast gene YJL158C): 0.2
- The level of expressed mRNA in the presence of chemical substance/The level of expressed mRNA in the absence of chemical substance (yeast gene YJL159W): 0.5
- The level of expressed mRNA in the presence of chemical substance/The level of expressed mRNA in the absence of chemical substance (yeast gene YJL165C): 2.8
- The level of expressed mRNA in the presence of chemical substance/The level of expressed mRNA in the absence of chemical substance (yeast gene YJR045C): 3.2
- The level of expressed mRNA in the presence of chemical substance/The level of expressed mRNA in the absence of chemical substance (yeast gene YJR090C): 1.9
- The level of expressed mRNA in the presence of chemical substance/The level of expressed mRNA in the absence of chemical substance (yeast gene YKL161C): 1.4
- The level of expressed mRNA in the presence of chemical substance/The level of expressed mRNA in the absence of chemical substance (yeast gene YKL163W): 0.7
- The level of expressed mRNA in the presence of chemical substance/The level of expressed mRNA in the absence of chemical substance (yeast gene YKL164C): 0.4
- The level of expressed mRNA in the presence of chemical substance/The level of expressed mRNA in the absence of chemical substance (yeast gene YKL210W): 3.5
- The level of expressed mRNA in the presence of chemical substance/The level of expressed mRNA in the absence of chemical substance (yeast gene YKR053C): 0.8
- The level of expressed mRNA in the presence of chemical substance/The level of expressed mRNA in the absence of chemical substance (yeast gene YLL024C): 2.8
- The level of expressed mRNA in the presence of chemical substance/The level of expressed mRNA in the absence of chemical substance (yeast gene YLL026W): 11.4
- The level of expressed mRNA in the presence of chemical substance/The level of expressed mRNA in the absence of chemical substance (yeast gene YLL039C): 3.4
- The level of expressed mRNA in the presence of chemical substance/The level of expressed mRNA in the absence of chemical substance (yeast gene YLL060C): 13.0
- The level of expressed mRNA in the presence of chemical substance/The level of expressed mRNA in the absence of chemical substance (yeast gene YLR006C): 1.1
- The level of expressed mRNA in the presence of chemical substance/The level of expressed mRNA in the absence of chemical substance (yeast gene YLR109W): 2.4
- The level of expressed mRNA in the presence of chemical substance/The level of expressed mRNA in the absence of chemical substance (yeast gene YLR259C): 1.8
- The level of expressed mRNA in the presence of chemical substance/The level of expressed mRNA in the absence of chemical substance (yeast gene YML007W): 2.1
- The level of expressed mRNA in the presence of chemical substance/The level of expressed mRNA in the absence of chemical substance (yeast gene YML070W): 4.5
- The level of expressed mRNA in the presence of chemical substance/The level of expressed mRNA in the absence of chemical substance (yeast gene YMR021C): 0.6
- The level of expressed mRNA in the presence of chemical substance/The level of expressed mRNA in the absence of chemical substance (yeast gene YMR173W): 2.7
- The level of expressed mRNA in the presence of chemical substance/The level of expressed mRNA in the absence of chemical substance (yeast gene YMR186W): 2.6
- The level of expressed mRNA in the presence of chemical substance/The level of expressed mRNA in the absence of chemical substance (yeast gene YNL064C): 2.4
- The level of expressed mRNA in the presence of chemical substance/The level of expressed mRNA in the absence of chemical substance (yeast gene YNL160W): 3.5
- The level of expressed mRNA in the presence of chemical substance/The level of expressed mRNA in the absence of chemical substance (yeast gene YNL241C): 3.4
- The level of expressed mRNA in the presence of chemical substance/The level of expressed mRNA in the absence of chemical substance (yeast gene YNR076W): 1.3
- The level of expressed mRNA in the presence of chemical substance/The level of expressed mRNA in the absence of chemical substance (yeast gene YOL064C): 8.7
- The level of expressed mRNA in the presence of chemical substance/The level of expressed mRNA in the absence of chemical substance (yeast gene YOL161C): 0.7
- The level of expressed mRNA in the presence of chemical substance/The level of expressed mRNA in the absence of chemical substance (yeast gene YOR008C): 1.9
- The level of expressed mRNA in the presence of chemical substance/The level of expressed mRNA in the absence of chemical substance (yeast gene YOR009W): 0.4
- The level of expressed mRNA in the presence of chemical substance/The level of expressed mRNA in the absence of chemical substance (yeast gene YOR010C): 0.6
- The level of expressed mRNA in the presence of chemical substance/The level of expressed mRNA in the absence of chemical substance (yeast gene YOR027W): 3.5
- The level of expressed mRNA in the presence of chemical substance/The level of expressed mRNA in the absence of chemical substance (yeast gene YOR208W): 1.5
- The level of expressed mRNA in the presence of chemical substance/The level of expressed mRNA in the absence of chemical substance (yeast gene YPL059W): 2.0
- The level of expressed mRNA in the presence of chemical substance/The level of expressed mRNA in the absence of chemical substance (yeast gene YPL106C): 4.9
- The level of expressed mRNA in the presence of chemical substance/The level of expressed mRNA in the absence of chemical substance (yeast gene YPL140C): 0.9
- The level of expressed mRNA in the presence of chemical substance/The level of expressed mRNA in the absence of chemical substance (yeast gene YPL194W): 9.6
- The level of expressed mRNA in the presence of chemical substance/The level of expressed mRNA in the absence of chemical substance (yeast gene YPL223C): 29.4
- The level of expressed mRNA in the presence of chemical substance/The level of expressed mRNA in the absence of chemical substance (yeast gene YPL240C): 3.5
- The level of expressed mRNA in the presence of chemical substance/The level of expressed mRNA in the absence of chemical substance (yeast gene YPR005C): 2.8
- The level of expressed mRNA in the presence of chemical substance/The level of expressed mRNA in the absence of chemical substance (yeast gene YPR026W): 0.9

— patent US8192962B2, “Processes for detecting toxic substances” (Daikin Industries, Ltd., priority 2001, dated 2012)
